Laboratory results: US4018914A, “Parturition inducement” (Abbott Laboratories, priority 1975, dated 1977)
Like-named read-outs stand apart in the source and are kept apart here.

System: pregnant rats
Assay type: in vivo, rat
Conditions: for Mean Number of Pups / Day of Parturition: pregnant rats; for Day of Parturition: number of animals at day
Procedure: The test animals received 20 μ in two equal portions, of L-pGlu-L-His-L-Trp-L-Ser-L-Tyr-D-Leu-L-Leu-L-Arg-L-Pro-NH-ethyl as a 0.04 g/l solution in 0.9% aqueous sodium chloride containing 0.1% bovine serum albumin. In all instances, the subcutaneous injections were given on day 18 of gestation.
In a repetition of the procedure of Example 1, the same test was carried out except that the animals were injected on day 19 of gestation.

[1] = same dose s.c. on day 19 of gestation

CCNC(=O)[C@@H]1CCCN1C(=O)[C@H](CCCNC(=N)N)NC(=O)[C@H](CC(C)C)NC(=O)[C@@H](CC(C)C)NC(=O)[C@H](Cc1ccc(O)cc1)NC(=O)[C@H](CO)NC(=O)[C@H](Cc1c[nH]c2ccccc12)NC(=O)[C@H](Cc1c[nH]cn1)NC(=O)[C@@H]1CCC(=O)N1 [Test compound, L-pGlu-L-His-L-Trp-L-Ser-L-Tyr-D-Leu-L-Leu-L-Arg-L-Pro-NH-ethyl]
Mean Number of Pups (20 μ in two equal portions s.c. on day 18 of gestation): 8.7
Day of Parturition (20 μ in two equal portions s.c. on day 18 of gestation, normal pregnancy 21.5 days): 1 at 21; 2 at 20
Mean Number of Pups [1]: 9.3
Day of Parturition [1]: 3 at 21
Condition of pups delivered (rat, in vivo): healthy and indistinguishable from the control animals' pups
Parturition result at other dose levels (rats, half and two times the dose level of example 1, compared with Table I): essentially the same result as shown in Table I
